Assay results from PubChem BioAssay AID248 (DTP/NCI, 2004).
Where “and” joins values, the source holds several entries; their conditions need not be identical. Identical values can stand only once. Toxic doses and inconclusive results are not listed. Cut-off read from the data, not from the text of the source: active = T/C of 150% or more; inactive = T/C below 125%.

System: L1210 leukemia ip in BDF1 mice, survival T/C
Experiment: NCI In Vivo Anticancer Drug Screen. Data for tumor model L1210 Leukemia (intraperitoneal) in B6D2F1 (BDF1) mice
Conditions: endpoint: mean survival time, higher = longer survival
Method in brief: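 Transplantable tumor model; survival measured in treated vs vehicle control mice. Value = treated/control.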

[1] = dose: 100.0 mg/kg/injection, schedule: Q01DX001 (ip), vehicle: Klucel (hydroxypropylcellulose) (HPC)
[2] = dose: 200.0 mg/kg/injection, schedule: Q01DX001 (ip), vehicle: Klucel (hydroxypropylcellulose) (HPC)
[3] = dose: 400.0 mg/kg/injection, schedule: Q01DX001 (ip), vehicle: Klucel (hydroxypropylcellulose) (HPC)
[4] = dose: 100.0 mg/kg/injection, schedule: Q04DX003 (ip), vehicle: Klucel (hydroxypropylcellulose) (HPC)
[5] = dose: 200.0 mg/kg/injection, schedule: Q04DX003 (ip), vehicle: Klucel (hydroxypropylcellulose) (HPC)
[6] = dose: 100.0 mg/kg/injection, schedule: Q04DX003 (ip), vehicle: saline
[7] = dose: 200.0 mg/kg/injection, schedule: Q04DX003 (ip), vehicle: saline
[8] = dose: 400.0 mg/kg/injection, schedule: Q04DX003 (ip), vehicle: saline
[9] = dose: 100.0 mg/kg/injection, schedule: Q01DX009 (ip), vehicle: saline
[10] = dose: 200.0 mg/kg/injection, schedule: Q01DX009 (ip), vehicle: saline
[11] = dose: 50.0 mg/kg/injection, schedule: Q01DX009 (ip), vehicle: saline with Tween-80
[12] = dose: 100.0 mg/kg/injection, schedule: Q01DX009 (ip), vehicle: saline with Tween-80
[13] = dose: 100.0 mg/kg/injection, schedule: Q04DX003 (ip), vehicle: saline with Tween-80
[14] = dose: 200.0 mg/kg/injection, schedule: Q04DX003 (ip), vehicle: saline with Tween-80
[15] = dose: 400.0 mg/kg/injection, schedule: Q04DX003 (ip), vehicle: saline with Tween-80
[16] = dose: 50.0 mg/kg/injection, schedule: Q01DX009 (ip), vehicle: Klucel (hydroxypropylcellulose) (HPC)
[17] = dose: 100.0 mg/kg/injection, schedule: Q01DX009 (ip), vehicle: Klucel (hydroxypropylcellulose) (HPC)
[18] = dose: 200.0 mg/kg/injection, schedule: Q01DX009 (ip), vehicle: Klucel (hydroxypropylcellulose) (HPC)
[19] = dose: 100.0 mg/kg/injection, schedule: Q01DX001 (ip), vehicle: saline
[20] = dose: 200.0 mg/kg/injection, schedule: Q01DX001 (ip), vehicle: saline
[21] = dose: 400.0 mg/kg/injection, schedule: Q01DX001 (ip), vehicle: saline
[22] = dose: 400.0 mg/kg/injection, schedule: Q04DX003 (ip), vehicle: Klucel (hydroxypropylcellulose) (HPC)
[23] = dose: 200.0 mg/kg/injection, schedule: Q01DX009 (ip), vehicle: saline with Tween-80
[24] = dose: 400.0 mg/kg/injection, schedule: Q01DX009 (ip), vehicle: saline with Tween-80

Measured: T/C

CN1CN(c2ccccc2)C2(CCN(CCC3Oc4ccccc4O3)CC2)C1=O
inactive: [1] 102 % of control | [2] 98 % of control | [3] 103 % of control

Cc1c(CO)[nH]c(=S)[nH]c1=O
inactive: dose: 50.0 mg/kg/injection, schedule: Q01DX001 (ip), vehicle: Klucel (hydroxypropylcellulose) (HPC) 103 % of control | dose: 50.0 mg/kg/injection, schedule: Q04DX003 (ip), vehicle: Klucel (hydroxypropylcellulose) (HPC) 100 % of control | [1] 95 % of control | [4] 92 % of control | [2] 97 % of control | [5] 89 % of control

COC(=O)C(CCCN=C(N)N)NC(=O)OCc1ccccc1 (stereo not drawn)
inactive: [6] 105 % of control | [7] 110 % of control | [8] 108 % of control

Oc1ccc(CNCc2ccccc2)c2cccnc12
inactive: dose: 75.0 mg/kg/injection, schedule: Q01DX001 (ip), vehicle: saline 115 % of control

CCC(C)C1NC(=O)C2C(CCN2C(=O)C(NC(=O)C(Cc2ccccc2)N(C)C)C(C)CC)Oc2ccc(cc2)/C=C\NC1=O (stereo not drawn)
inactive: [6] 94 % of control | [7] 97 % of control | [8] 92 % of control

C=CCNC(=O)/C=C/C(=O)O
inactive: [9] 95 % of control | [10] 93 % of control

CCCCn1c(O)c(C=N)c(=O)n(CCCC)c1=O
inactive: dose: 25.0 mg/kg/injection, schedule: Q01DX009 (ip), vehicle: saline with Tween-80 101 % of control | [11] 90 % of control | [12] 101 % of control and 86 % of control | [13] 89 % of control | [14] 94 % of control | [15] 89 % of control

Cc1n(CCBr)c([N+](=O)[O-])c[n+]1C1N=C(c2ccccc2)c2cc(Cl)ccc2N(C)C1=O (stereo not drawn)
inactive: [16] 89 % of control | [17] 89 % of control | [18] 86 % of control

C1Cc2c3c4c(c5c2C(C1)CCC5)CCCC4CCC3
inactive: [19] 97 % of control | [20] 94 % of control | [21] 91 % of control

COc1ccc(C(=O)C(O)O)cc1
inactive: [9] 100 % of control | [6] 103 % of control | [10] 96 % of control | [7] 98 % of control | dose: 400.0 mg/kg/injection, schedule: Q01DX009 (ip), vehicle: saline 112 % of control | [8] 103 % of control

CCC(F)C(Br)C(=O)O (stereo not drawn)
inactive: dose: 100.0 mg/kg/injection, schedule: Q04DX002 (ip), vehicle: saline with Tween-80 101 % of control | dose: 200.0 mg/kg/injection, schedule: Q04DX002 (ip), vehicle: saline with Tween-80 93 % of control | dose: 400.0 mg/kg/injection, schedule: Q04DX002 (ip), vehicle: saline with Tween-80 87 % of control

O=[N+]([O-])c1ccc(C2OC3CC4C5CCCC5C3C4O2)cc1 (stereo not drawn)
inactive: dose: 50.0 mg/kg/injection, schedule: Q01DX001 (ip), vehicle: carboxymethylcellulose (CMC) 87 % of control | dose: 100.0 mg/kg/injection, schedule: Q01DX001 (ip), vehicle: carboxymethylcellulose (CMC) 87 % of control | dose: 200.0 mg/kg/injection, schedule: Q01DX001 (ip), vehicle: carboxymethylcellulose (CMC) 91 % of control | dose: 400.0 mg/kg/injection, schedule: Q01DX001 (ip), vehicle: carboxymethylcellulose (CMC) 91 % of control

CC(C)(NC(=O)NCCCl)C(=O)O
inactive: [1] 105 % of control | [2] 96 % of control | [3] 94 % of control

Clc1cccc(Cl)c1C[n+]1ccccc1
inactive: dose: 9.38 mg/kg/injection, schedule: Q01DX001 (ip), vehicle: saline 110 % of control | dose: 18.75 mg/kg/injection, schedule: Q01DX001 (ip), vehicle: saline 110 % of control

Cc1ncc(C(=O)O)[nH]1
inactive: [19] 91 % of control | [20] 89 % of control | [21] 91 % of control

OCC1(CO)CCCC2(COC3(CCCCC3)OC2)C1
inactive: [4] 98 % of control | [5] 94 % of control | [22] 94 % of control

CC(C)NC(=O)Oc1ccccc1
inactive: dose: 100.0 mg/kg/injection, schedule: Q04DX002 (ip), vehicle: Klucel (hydroxypropylcellulose) (HPC) 93 % of control | dose: 200.0 mg/kg/injection, schedule: Q04DX002 (ip), vehicle: Klucel (hydroxypropylcellulose) (HPC) 110 % of control | dose: 400.0 mg/kg/injection, schedule: Q04DX002 (ip), vehicle: Klucel (hydroxypropylcellulose) (HPC) 96 % of control

CN(C)C(=O)Sc1ccc(S(=O)(=O)F)cc1[N+](=O)[O-]
inactive: [17] 110 % of control | [18] 102 % of control

Cc1cc(Cl)nc2ccc(Cc3ccc4nc(Cl)cc(C)c4c3)cc12
inactive: [19] 91 % of control | [20] 94 % of control | [21] 96 % of control

ClCCN(CCCl)CCNc1ccnc2cc(Cl)ccc12
inactive: dose: 5.0 mg/kg/injection, schedule: Q01DX001 (ip), vehicle: saline 100 % of control | dose: 10.0 mg/kg/injection, schedule: Q01DX001 (ip), vehicle: saline 108 % of control | dose: 20.0 mg/kg/injection, schedule: Q01DX001 (ip), vehicle: saline 117 % of control | dose: 40.0 mg/kg/injection, schedule: Q01DX001 (ip), vehicle: saline 116 % of control

O=C(O)c1cc(Cl)ccc1O
inactive: dose: 100.0 mg/kg/injection, schedule: Q04DX002 (ip), vehicle: other 100 % of control | dose: 200.0 mg/kg/injection, schedule: Q04DX002 (ip), vehicle: other 103 % of control

Cc1cccc(OCCOC(=O)Nc2ccc(C)cc2[N+](=O)[O-])c1
inactive: [11] 97 % of control | [12] 87 % of control | [13] 103 % of control | [14] 94 % of control | [15] 99 % of control

CN(C)c1ccc(/C=N/NC(=O)C(O)(c2ccccc2)c2ccccc2)cc1
inactive: [12] 98 % of control | [23] 98 % of control | [24] 88 % of control

CC(=O)OC1CC2C(C)(C)C(=O)C3OC3C2(C)C2CCC3(C)C(=CC(=O)OC3c3ccoc3)C12C (stereo not drawn)
inactive: dose: 100.0 mg/kg/injection, schedule: Q01DX001 (sc), vehicle: steriod suspending solution 101 % of control | dose: 200.0 mg/kg/injection, schedule: Q01DX001 (sc), vehicle: steriod suspending solution 104 % of control | dose: 400.0 mg/kg/injection, schedule: Q01DX001 (sc), vehicle: steriod suspending solution 103 % of control

COc1ccc(S(=O)(=O)N/N=C/C(=O)O)cc1
inactive: dose: 6.25 mg/kg/injection, schedule: Q01DX009 (ip), vehicle: saline with Tween-80 109 % of control | dose: 12.5 mg/kg/injection, schedule: Q01DX009 (ip), vehicle: saline with Tween-80 117 % of control

Cc1ccc(C(=O)CCN2CCOCC2)cc1C
inactive: [6] 93 % of control | [7] 91 % of control

CCN/C(C)=C\C(=O)OCC
inactive: [12] 95 % of control | [13] 96 % of control | [23] 111 % of control | [14] 107 % of control | [24] 95 % of control | [15] 105 % of control

CC(=O)N1CCN(C(C)=O)c2ccccc21
inactive: [4] 106 % of control | [5] 103 % of control | [22] 106 % of control

Cc1nc2ccccc2nc1CBr
inactive: dose: 3.2 mg/kg/injection, schedule: Q01DX009 (ip), vehicle: Klucel (hydroxypropylcellulose) (HPC) 103 % of control | dose: 6.3 mg/kg/injection, schedule: Q01DX009 (ip), vehicle: Klucel (hydroxypropylcellulose) (HPC) 100 % of control | dose: 12.5 mg/kg/injection, schedule: Q01DX009 (ip), vehicle: Klucel (hydroxypropylcellulose) (HPC) 105 % of control | dose: 12.5 mg/kg/injection, schedule: Q04DX003 (ip), vehicle: saline with Tween-80 98 % of control | dose: 25.0 mg/kg/injection, schedule: Q01DX009 (ip), vehicle: Klucel (hydroxypropylcellulose) (HPC) 97 % of control | dose: 25.0 mg/kg/injection, schedule: Q04DX003 (ip), vehicle: saline with Tween-80 89 % of control | [16] 102 % of control | dose: 50.0 mg/kg/injection, schedule: Q04DX003 (ip), vehicle: saline with Tween-80 98 % of control

CN(C)C(=O)NN1CCCCCC1
inactive: [6] 96 % of control | [7] 96 % of control | [8] 100 % of control
